A word on the IC50: it is the midpoint of a concentration-inhibition curve.

Drawing on ChEMBL document CHEMBL1151785, “Oleanolic acid and its derivatives: new inhibitor of protein tyrosine phosphatase 1B with cellular activities” (Bioorg Med Chem, 2008), this text covers IC50 and Ratio for 25 compounds.

Assay [1] concerns the target Receptor-type tyrosine-protein phosphatase epsilon (Homo sapiens, UniProt P23469). Description: Inhibition of human recombinant PTPepsilon.
In assay [2] the target is Receptor-type tyrosine-protein phosphatase alpha (Homo sapiens, UniProt P18433). Description: Inhibition of human recombinant PTPalpha.
Receptor-type tyrosine-protein phosphatase alpha, sequence (P18433 whole entry): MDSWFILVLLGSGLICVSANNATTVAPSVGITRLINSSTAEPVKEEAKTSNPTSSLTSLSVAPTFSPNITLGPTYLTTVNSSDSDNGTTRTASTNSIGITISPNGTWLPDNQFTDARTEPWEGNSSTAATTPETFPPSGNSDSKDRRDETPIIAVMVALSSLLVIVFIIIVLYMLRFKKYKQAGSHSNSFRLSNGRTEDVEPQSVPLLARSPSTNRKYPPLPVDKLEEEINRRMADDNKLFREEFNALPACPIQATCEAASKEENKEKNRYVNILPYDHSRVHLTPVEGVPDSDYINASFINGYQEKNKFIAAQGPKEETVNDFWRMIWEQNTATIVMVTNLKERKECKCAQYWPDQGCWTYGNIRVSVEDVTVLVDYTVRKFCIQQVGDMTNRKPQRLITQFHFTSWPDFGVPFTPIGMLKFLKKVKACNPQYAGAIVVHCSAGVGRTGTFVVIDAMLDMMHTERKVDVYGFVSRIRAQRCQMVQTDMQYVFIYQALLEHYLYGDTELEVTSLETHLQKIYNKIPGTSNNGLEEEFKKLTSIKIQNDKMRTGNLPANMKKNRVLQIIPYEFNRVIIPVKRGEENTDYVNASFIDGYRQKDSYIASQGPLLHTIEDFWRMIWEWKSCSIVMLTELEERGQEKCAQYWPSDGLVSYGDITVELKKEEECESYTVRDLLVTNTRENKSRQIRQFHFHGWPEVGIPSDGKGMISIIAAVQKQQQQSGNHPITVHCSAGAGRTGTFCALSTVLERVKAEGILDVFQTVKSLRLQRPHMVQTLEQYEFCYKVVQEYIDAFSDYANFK
In assay [3] the target is Receptor-type tyrosine-protein phosphatase F (Homo sapiens, UniProt P10586). Description: Inhibition of human recombinant LAR.
Receptor-type tyrosine-protein phosphatase F, sequence (P10586 whole entry): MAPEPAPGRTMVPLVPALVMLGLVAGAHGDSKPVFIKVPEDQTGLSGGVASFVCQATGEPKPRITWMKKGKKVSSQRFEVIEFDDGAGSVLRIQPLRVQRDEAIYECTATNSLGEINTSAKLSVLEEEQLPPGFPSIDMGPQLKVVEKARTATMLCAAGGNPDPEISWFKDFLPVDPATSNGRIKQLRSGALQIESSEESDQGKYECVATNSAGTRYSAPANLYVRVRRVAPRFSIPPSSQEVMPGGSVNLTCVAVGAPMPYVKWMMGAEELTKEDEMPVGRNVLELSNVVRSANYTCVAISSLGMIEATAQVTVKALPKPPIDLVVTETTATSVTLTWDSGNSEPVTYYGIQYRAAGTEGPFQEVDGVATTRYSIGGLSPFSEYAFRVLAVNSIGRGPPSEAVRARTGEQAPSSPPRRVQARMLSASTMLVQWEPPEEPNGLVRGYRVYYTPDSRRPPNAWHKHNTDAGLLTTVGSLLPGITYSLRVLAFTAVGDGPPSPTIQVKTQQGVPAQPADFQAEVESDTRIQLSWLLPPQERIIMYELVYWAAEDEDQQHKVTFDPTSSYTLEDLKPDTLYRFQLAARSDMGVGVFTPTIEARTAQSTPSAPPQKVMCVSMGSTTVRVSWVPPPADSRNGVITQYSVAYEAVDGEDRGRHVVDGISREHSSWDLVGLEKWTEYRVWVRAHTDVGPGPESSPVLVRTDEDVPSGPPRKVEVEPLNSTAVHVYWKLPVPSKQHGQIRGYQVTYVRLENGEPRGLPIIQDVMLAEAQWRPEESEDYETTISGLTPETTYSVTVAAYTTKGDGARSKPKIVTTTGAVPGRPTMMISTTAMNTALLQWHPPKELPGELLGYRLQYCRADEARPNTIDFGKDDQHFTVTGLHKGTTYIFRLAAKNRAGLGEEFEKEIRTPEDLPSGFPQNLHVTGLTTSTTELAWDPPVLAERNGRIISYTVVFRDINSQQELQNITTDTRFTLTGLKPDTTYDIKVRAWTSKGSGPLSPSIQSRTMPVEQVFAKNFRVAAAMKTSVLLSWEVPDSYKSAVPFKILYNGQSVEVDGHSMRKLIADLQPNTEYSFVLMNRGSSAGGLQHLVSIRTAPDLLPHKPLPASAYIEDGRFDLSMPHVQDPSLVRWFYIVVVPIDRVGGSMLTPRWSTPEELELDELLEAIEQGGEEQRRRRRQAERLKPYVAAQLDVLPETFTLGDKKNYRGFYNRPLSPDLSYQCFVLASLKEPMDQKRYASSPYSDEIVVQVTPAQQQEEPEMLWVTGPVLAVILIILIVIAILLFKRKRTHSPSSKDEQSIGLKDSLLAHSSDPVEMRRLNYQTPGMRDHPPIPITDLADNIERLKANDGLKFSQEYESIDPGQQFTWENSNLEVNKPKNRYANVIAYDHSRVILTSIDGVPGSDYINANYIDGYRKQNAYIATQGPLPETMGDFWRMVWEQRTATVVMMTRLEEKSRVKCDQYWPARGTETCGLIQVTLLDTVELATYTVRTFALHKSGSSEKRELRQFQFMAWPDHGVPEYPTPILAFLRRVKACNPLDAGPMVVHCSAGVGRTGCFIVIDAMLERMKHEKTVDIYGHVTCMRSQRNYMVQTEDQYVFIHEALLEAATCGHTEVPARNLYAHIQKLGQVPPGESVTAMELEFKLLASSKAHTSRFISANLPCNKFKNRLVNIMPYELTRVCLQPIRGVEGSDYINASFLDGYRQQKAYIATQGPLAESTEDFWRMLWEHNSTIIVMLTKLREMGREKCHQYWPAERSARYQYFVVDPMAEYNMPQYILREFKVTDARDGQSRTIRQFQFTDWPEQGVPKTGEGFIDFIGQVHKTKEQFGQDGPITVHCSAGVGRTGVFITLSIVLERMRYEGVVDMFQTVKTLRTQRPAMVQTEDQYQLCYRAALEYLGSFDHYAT
The nature of assay [4]: Selectivity for PTP1B to human recombinant SHP1.
In assay [5] the target is T1, Tyrosine-protein phosphatase non-receptor type 1 (Homo sapiens, UniProt P18031).
T1 sequence (P18031 whole entry): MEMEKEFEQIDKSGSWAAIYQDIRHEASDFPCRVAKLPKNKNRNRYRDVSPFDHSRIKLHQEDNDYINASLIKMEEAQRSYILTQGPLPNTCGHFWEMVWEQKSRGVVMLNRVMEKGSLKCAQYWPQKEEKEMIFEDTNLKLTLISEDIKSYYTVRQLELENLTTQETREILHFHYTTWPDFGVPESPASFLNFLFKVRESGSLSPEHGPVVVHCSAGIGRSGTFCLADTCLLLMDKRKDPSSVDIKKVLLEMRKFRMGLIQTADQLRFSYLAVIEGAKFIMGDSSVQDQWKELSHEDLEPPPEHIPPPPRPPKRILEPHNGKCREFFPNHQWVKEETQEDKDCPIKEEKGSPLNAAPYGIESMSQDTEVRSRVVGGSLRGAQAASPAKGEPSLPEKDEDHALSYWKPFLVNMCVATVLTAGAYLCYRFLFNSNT
Description: Inhibition of PTP1B by pNPP assay.

Assay [6] concerns the target Tyrosine-protein phosphatase non-receptor type 6 (Homo sapiens, UniProt P29350). Description: Inhibition of human recombinant SHP1.
For assay [7], the target named is T2, Tyrosine-protein phosphatase non-receptor type 2 (Homo sapiens, UniProt P17706).
T2 sequence (P17706 whole entry): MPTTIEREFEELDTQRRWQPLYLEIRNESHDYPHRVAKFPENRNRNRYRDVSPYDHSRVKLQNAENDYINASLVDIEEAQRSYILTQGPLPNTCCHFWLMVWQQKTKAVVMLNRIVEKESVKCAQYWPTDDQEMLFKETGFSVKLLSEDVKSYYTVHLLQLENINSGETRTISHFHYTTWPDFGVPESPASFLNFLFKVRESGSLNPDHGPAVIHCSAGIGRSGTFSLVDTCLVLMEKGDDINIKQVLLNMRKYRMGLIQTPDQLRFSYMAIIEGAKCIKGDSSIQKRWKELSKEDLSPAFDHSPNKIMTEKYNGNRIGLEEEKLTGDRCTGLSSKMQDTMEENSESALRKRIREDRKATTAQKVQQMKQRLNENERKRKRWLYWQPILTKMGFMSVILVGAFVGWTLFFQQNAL
The assay is described as follows: Inhibition of TCPTP by pNPP assay.

Tyrosine-protein phosphatase non-receptor type 6, sequence (P29350 whole entry): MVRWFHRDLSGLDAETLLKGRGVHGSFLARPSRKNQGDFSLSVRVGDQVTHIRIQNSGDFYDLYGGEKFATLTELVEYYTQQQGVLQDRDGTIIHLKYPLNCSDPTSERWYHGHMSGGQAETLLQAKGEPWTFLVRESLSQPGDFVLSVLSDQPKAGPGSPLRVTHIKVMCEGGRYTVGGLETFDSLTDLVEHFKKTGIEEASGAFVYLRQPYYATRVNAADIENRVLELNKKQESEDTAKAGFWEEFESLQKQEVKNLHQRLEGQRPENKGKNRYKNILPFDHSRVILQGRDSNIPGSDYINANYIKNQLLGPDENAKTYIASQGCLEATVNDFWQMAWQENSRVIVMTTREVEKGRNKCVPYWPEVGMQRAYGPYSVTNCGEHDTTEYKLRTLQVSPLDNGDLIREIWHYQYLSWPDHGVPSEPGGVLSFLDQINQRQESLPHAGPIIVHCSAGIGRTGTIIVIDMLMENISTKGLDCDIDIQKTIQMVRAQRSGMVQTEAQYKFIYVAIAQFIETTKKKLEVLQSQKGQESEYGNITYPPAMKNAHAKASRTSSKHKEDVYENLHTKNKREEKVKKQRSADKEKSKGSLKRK
Receptor-type tyrosine-protein phosphatase epsilon, sequence (P23469 whole entry): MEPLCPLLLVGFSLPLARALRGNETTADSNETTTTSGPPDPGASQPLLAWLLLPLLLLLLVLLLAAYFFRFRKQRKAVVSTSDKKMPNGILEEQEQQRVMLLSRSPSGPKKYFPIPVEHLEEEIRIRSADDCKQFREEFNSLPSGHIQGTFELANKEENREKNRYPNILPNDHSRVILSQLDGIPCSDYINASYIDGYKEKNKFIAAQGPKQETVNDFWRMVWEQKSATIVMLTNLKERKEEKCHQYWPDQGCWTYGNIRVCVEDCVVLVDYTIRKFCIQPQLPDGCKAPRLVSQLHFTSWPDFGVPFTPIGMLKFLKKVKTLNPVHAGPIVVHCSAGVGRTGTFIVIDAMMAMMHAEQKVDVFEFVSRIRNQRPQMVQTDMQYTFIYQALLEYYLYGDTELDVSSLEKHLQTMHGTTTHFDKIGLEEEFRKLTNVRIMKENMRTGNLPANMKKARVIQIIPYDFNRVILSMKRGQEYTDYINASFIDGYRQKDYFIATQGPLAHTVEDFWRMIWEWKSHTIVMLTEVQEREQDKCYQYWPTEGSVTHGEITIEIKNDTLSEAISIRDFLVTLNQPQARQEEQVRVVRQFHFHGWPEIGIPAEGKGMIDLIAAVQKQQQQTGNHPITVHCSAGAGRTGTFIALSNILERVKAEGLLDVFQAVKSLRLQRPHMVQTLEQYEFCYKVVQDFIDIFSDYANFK

Regarding `CC1(C)CC[C@]2(C(=O)O)CC[C@]3(C)C(=CC[C@@H]4[C@@]5(C)CC[C@H](O)C(C)(C)[C@@H]5CC[C@]43C)[C@@H]2C1` [OLEANOLIC_ACID], the IC50 in assay [1], in assay [2] and in assay [3] was above 40 µM each time.

As to `CC1(C)CC[C@]2(CCCCC(=O)O)CC[C@]3(C)C(=CC[C@@H]4[C@@]5(C)CC[C@H](O)C(C)(C)[C@@H]5CC[C@]43C)[C@@H]2C1`, the Ratio in assay [4] is 2. Further, the IC50 in assay [5] was 1.33 µM; in assay [6] it was 5.2 µM; in assay [1], above 40 µM; in assay [2] it was above 40 µM; in assay [3], above 40 µM; in assay [7], 1.11 µM.

In the case of `C[C@H]1[C@H](C)CC[C@]2(C(=O)O)CC[C@]3(C)C(=CC[C@@H]4[C@@]5(C)C[C@@H](O)[C@H](O)C(C)(C)[C@@H]5CC[C@]43C)[C@H]12` [COROSOLIC ACID], the Ratio in assay [4] was 2. Besides, the IC50 in assay [5] is 5.49 µM; in assay [6], 24.6 µM; in assay [1], above 40 µM; in assay [2], above 40 µM; in assay [3], above 40 µM; in assay [7], 11.3 µM.

Turning to `CC1(C)CC[C@]2(CCC(=O)O)CC[C@]3(C)C(=CC[C@@H]4[C@@]5(C)CC[C@H](O)C(C)(C)[C@@H]5CC[C@]43C)[C@@H]2C1`, the Ratio in assay [4] is 2. Moreover, the IC50 in assay [5] is 2.1 µM; in assay [6] it was 27.4 µM; in assay [1] it was above 40 µM; in assay [2], above 40 µM; in assay [3], above 40 µM; in assay [7] it was 2.77 µM.

Regarding `CC1(C)CC[C@]2(C(=O)O)CC[C@]3(C)C(=CC[C@@H]4[C@@]5(C)CC[C@H](OCc6ccc(C(=O)O)cc6)C(C)(C)[C@@H]5CC[C@]43C)[C@@H]2C1`, the Ratio in assay [4] was found to be 2. For the same compound, the IC50 was 0.54 µM in assay [5]; 4.05 µM in assay [6]; above 40 µM in assay [1]; above 40 µM in assay [2]; above 40 µM in assay [3]; 0.47 µM in assay [7].

With `CC1(C)CC[C@]2(CCCCC(=O)N[C@@H](Cc3ccccc3)C(=O)O)CC[C@]3(C)C(=CC[C@@H]4[C@@]5(C)CC[C@H](O)C(C)(C)[C@@H]5CC[C@]43C)[C@@H]2C1`, the Ratio in assay [4] was 2. Besides, the IC50 was 0.57 µM in assay [5]; 4.08 µM in assay [6]; above 40 µM in assay [1]; above 40 µM in assay [2]; above 40 µM in assay [3]; 0.63 µM in assay [7].

As for `CC1(C)CC[C@]2(C(=O)O)CC[C@]3(C)C(=CC[C@@H]4[C@@]5(C)CC[C@H](OC(=O)CC(C)(C)C(=O)O)C(C)(C)[C@@H]5CC[C@]43C)[C@@H]2C1`, the Ratio in assay [4] was 2. Also, the IC50 in assay [5] was 2.33 µM; in assay [6], 12.4 µM; in assay [1], above 40 µM; in assay [2] it was above 40 µM; in assay [3], above 40 µM; in assay [7] it was 1.38 µM.

Turning to `CC1(C)CC[C@]2(C(=O)N[C@@H](Cc3ccccc3)C(=O)O)CC[C@]3(C)C(=CC[C@@H]4[C@@]5(C)CC[C@H](O)C(C)(C)[C@@H]5CC[C@]43C)[C@@H]2C1`, the IC50 in assay [5] is 3.31 µM; in assay [6], 12.6 µM.

For the compound `C[C@H]1[C@H](C)CC[C@]2(C(=O)O)CC[C@]3(C)C(=CC[C@@H]4[C@@]5(C)CC[C@H](O)C(C)(C)[C@@H]5CC[C@]43C)[C@H]12` [URSOLIC ACID], the IC50 in assay [6] was 25.8 µM; in assay [1] it was above 40 µM; in assay [2], above 40 µM; in assay [3], above 40 µM; in assay [7], 3.33 µM.

`CC1(C)CC[C@]2(CCCCCCCCC(=O)O)CC[C@]3(C)C(=CC[C@@H]4[C@@]5(C)CC[C@H](O)C(C)(C)[C@@H]5CC[C@]43C)[C@@H]2C1`: the IC50 in assay [5] was 0.78 µM; in assay [7], 0.79 µM.

Consider `CC1(C)CC[C@]2(CCCCC(=O)N[C@H](Cc3ccccc3)C(=O)O)CC[C@]3(C)C(=CC[C@@H]4[C@@]5(C)CC[C@H](O)C(C)(C)[C@@H]5CC[C@]43C)[C@@H]2C1`, for which the IC50 in assay [5] turned out to be 0.74 µM; in assay [7] it was 0.68 µM.

Take `CC1(C)CC[C@]2(CCCCC(=O)NC(Cc3ccc([N+](=O)[O-])cc3)C(=O)O)CC[C@]3(C)C(=CC[C@@H]4[C@@]5(C)CC[C@H](O)C(C)(C)[C@@H]5CC[C@]43C)[C@@H]2C1` (some centres undefined): the IC50 in assay [5] turned out to be 0.45 µM; in assay [7] it was 0.36 µM.

Regarding `CC1(C)CC[C@]2(C(=O)O)CC[C@]3(C)C(=CC[C@@H]4[C@@]5(C)CCC(=O)C(C)(C)[C@@H]5CC[C@]43C)[C@@H]2C1` [OLEANONIC ACID], the IC50 in assay [5] is 5.32 µM; in assay [7], 5.63 µM.

Turning to `CC1(C)CC[C@]2(C(=O)O)CC[C@]3(C)C(=CC[C@@H]4[C@@]5(C)CC[C@H](OC(=O)CCC(=O)O)C(C)(C)[C@@H]5CC[C@]43C)[C@@H]2C1` [OLEANOLIC ACID 3-O-SUCCINATE], the IC50 was determined as 5.97 µM in assay [5] and 5.36 µM in assay [7].

On to `CC1(C)CC[C@]2(C(=O)O)CC[C@]3(C)C(=CC[C@@H]4[C@@]5(C)CC[C@H](OC(=O)c6ccccc6C(=O)O)C(C)(C)[C@@H]5CC[C@]43C)[C@@H]2C1`, for which the IC50 amounted to 4.58 µM in assay [5] and 5 µM in assay [7].

Take `CC1(C)CC[C@]2(CCCCC(=O)NC(Cc3cccc(Cl)c3)C(=O)O)CC[C@]3(C)C(=CC[C@@H]4[C@@]5(C)CC[C@H](O)C(C)(C)[C@@H]5CC[C@]43C)[C@@H]2C1` (some centres undefined): the figures for the IC50 in assay [5] and in assay [7] were 0.51 µM and 0.52 µM, respectively.

As for `Cc1ccc(CC(NC(=O)CCCC[C@]23CCC(C)(C)C[C@H]2C2=CC[C@@H]4[C@@]5(C)CC[C@H](O)C(C)(C)[C@@H]5CC[C@@]4(C)[C@]2(C)CC3)C(=O)O)cc1` (some centres undefined), the IC50 in assay [5] amounted to 0.65 µM; in assay [7], 0.66 µM.

As to `COc1cc(CC(NC(=O)CCCC[C@]23CCC(C)(C)C[C@H]2C2=CC[C@@H]4[C@@]5(C)CC[C@H](O)C(C)(C)[C@@H]5CC[C@@]4(C)[C@]2(C)CC3)C(=O)O)cc(OC)c1` (some centres undefined), the IC50 was 0.63 µM in assay [5] and 0.85 µM in assay [7].

In the case of `CC1(C)CC[C@]2(CCCCCCC(=O)O)CC[C@]3(C)C(=CC[C@@H]4[C@@]5(C)CC[C@H](O)C(C)(C)[C@@H]5CC[C@]43C)[C@@H]2C1`, the IC50 turned out to be 0.88 µM in assay [5] and 0.85 µM in assay [7].

On to `COc1ccccc1CC(NC(=O)CCCC[C@]12CCC(C)(C)C[C@H]1C1=CC[C@@H]3[C@@]4(C)CC[C@H](O)C(C)(C)[C@@H]4CC[C@@]3(C)[C@]1(C)CC2)C(=O)O` (some centres undefined), for which the concentration for half-maximal inhibition (IC50) is 0.53 µM in assay [5] and 0.45 µM in assay [7].

Take `CCOC(=O)C(=O)O[C@H]1CC[C@]2(C)[C@H]3CC=C4[C@@H]5CC(C)(C)CC[C@]5(C(=O)O)CC[C@@]4(C)[C@]3(C)CC[C@H]2C1(C)C`: the IC50 in assay [5] came to 2.89 µM; in assay [7], 3.66 µM.

As to `CC1(C)CC[C@]2(CCCCC(=O)NC(Cc3ccc4c(c3)OCO4)C(=O)O)CC[C@]3(C)C(=CC[C@@H]4[C@@]5(C)CC[C@H](O)C(C)(C)[C@@H]5CC[C@]43C)[C@@H]2C1` (some centres undefined), the Ratio in assay [4] stood at 2. Moreover, the IC50 is 0.44 µM in assay [5]; 0.71 µM in assay [6]; above 40 µM in assay [1]; above 40 µM in assay [2]; above 40 µM in assay [3]; 0.6 µM in assay [7].

In the case of `COc1cccc(CC(NC(=O)CCCC[C@]23CCC(C)(C)C[C@H]2C2=CC[C@@H]4[C@@]5(C)CC[C@H](O)C(C)(C)[C@@H]5CC[C@@]4(C)[C@]2(C)CC3)C(=O)O)c1` (some centres undefined), the IC50 in assay [5] and in assay [7] was 0.52 µM in each case.

For `CC1(C)CC[C@]2(CCCCCCCCCCCCC(=O)O)CC[C@]3(C)C(=CC[C@@H]4[C@@]5(C)CC[C@H](O)C(C)(C)[C@@H]5CC[C@]43C)[C@@H]2C1`, the IC50 in assay [5] worked out at 0.59 µM; in assay [7], 0.53 µM.

Regarding `C[C@H]1[C@H](C)CC[C@]2(C(=O)O)CC[C@]3(C)C(=CC[C@@H]4[C@@]5(C)C[C@@H](O)[C@H](O)[C@@](C)(CO)[C@@H]5[C@H](O)C[C@]43C)[C@H]12` [MADECASSIC ACID], the figures for the IC50 in assay [5] and in assay [7] were 12.4 µM and above 20 µM, respectively.
